Activity data for two molecules are collected here from ChEMBL document CHEMBL4673211, “A new Chlorin formulation promotes efficient photodynamic action in choriocapillaris of rabbit's eyes” (Bioorg Med Chem Lett, 2018).

Calls of active or inactive are those of the source. No cut-off for these calls is given here.

Data set [1] in a line: Toxicity in New Zealand rabbit assessed as effect on renal profile pretreated with compound at 6 mg/m2, iv followed by diode laser irradiation at 650 nm measured after 24 hrs by fluorescein angiogram. In kind it is organism-based, Oryctolagus cuniculus. The conditions noted are these: in vivo, 0.65 µM, dose 6 mg/m2, time 24 hrs.
Data set [2] in a line: Aggregation property of the compound in toluene at 130 degreeC under inert atmosphere. The class given is physicochemical.
A short description of data set [3]: Toxicity in New Zealand rabbit assessed as effect on hepatic profile pretreated with compound at 6 mg/m2, iv followed by diode laser irradiation at 650 nm measured after 24 hrs by fluorescein angiogram. The class given is organism-based, Oryctolagus cuniculus. To be noted: in vivo, 0.65 µM, dose 6 mg/m2, time 24 hrs.
Data set [4] deals with Oryctolagus cuniculus. Nature of the data set: Photodynamic activity in New Zealand rabbit assessed as appearance of pallor area of one qaurter-diameter disc shaped in left eye pretreated with compound at 6 mg/m2, iv followed by diode laser irradiation at 650 nm measured after 24 hrs by retinography. The class given is functional, organism-based. The conditions noted are these: dose 6.0 mg/m2, time 24.0 hrs.

The subject of data set [5] is Oryctolagus cuniculus. The data set is described as follows: Photodynamic activity in New Zealand rabbit assessed as induction of choriocapillaris occlusion in left eye pretreated with compound at 6 mg/m2, iv followed by diode laser irradiation at 650 nm by indirect ophthalmoscopy. The class given is functional, organism-based.
Data set [6] is described as follows: Induction of singlet oxygen generation in 9:1 acetonitrile/water mixture assessed as singlet oxygen quantum yield irradiated with 532 nanometer laser light. In kind it is functional.
Data set [7] can be described thus: Induction of singlet oxygen generation assessed as singlet oxygen quantum yield using liposome formulated compound. The class given is functional.
The nature of data set [8]: Photoactivity of the compound.
Data set [9] is described as follows: Toxicity in New Zealand rabbit assessed as retinal damage in left eye pretreated with compound at 6 mg/m2, iv followed by diode laser irradiation at 650 nm measured after 24 hrs by fluorescein angiogram. The class given is organism-based, Oryctolagus cuniculus. To be noted: in vivo, 0.65 µM, dose 6 mg/m2, time 24 hrs.
The subject of data set [10] is Oryctolagus cuniculus. The data set is described as follows: Photodynamic activity in New Zealand rabbit assessed as outer blood-retinal barrier breakdown causing hyper-fluorescence in left eye pretreated with compound at 6 mg/m2, iv followed by diode laser irradiation at 650 nm measured after 24 hrs by fluorescein angiogram. In kind it is functional, organism-based. The conditions noted are these: dose 6.0 mg/m2, time 24.0 hrs.

Data set [11] has as its system Oryctolagus cuniculus. Nature of the data set: Photodynamic activity in New Zealand rabbit assessed as blood flow obstruction causing hypo-fluorescent lesion in left eye pretreated with compound at 6 mg/m2, iv followed by diode laser irradiation at 650 nm measured after 24 hrs by fluorescein angiogram. In kind it is functional, organism-based. To be noted: dose 6.0 mg/m2, time 24.0 hrs.

The subject of data set [12] is Oryctolagus cuniculus. The data set is described as follows: Photodynamic activity in New Zealand rabbit assessed as vascular occlusion causing hypo-fluorescent lesion in left eye pretreated with compound at 6 mg/m2, iv followed by diode laser irradiation at 650 nm measured after 24 hrs by fluorescein angiogram. The class given is functional, organism-based. To be noted: dose 6.0 mg/m2, time 24.0 hrs.

For the molecule `C=Cc1c(C)c2cc3nc(cc4[nH]c(cc5nc(cc1[nH]2)[C@@]1(C)C5=CC[C@H]2C(=O)N(c5ccc([N+](=O)[O-])cc5)C(=O)[C@H]21)c(C)c4CCC(=O)OC)C(CCC(=O)OC)=C3C`, the Activity entry in data set [1] was “Non-Toxic”; in [2], “Not Active”; in data set [3] it was “Non-Toxic”; in data set [6] it was 0.6; in data set [7], 0.5; in [9] it was “Non-Toxic”. Moreover, the outcome (in the data set with Oryctolagus cuniculus [4]; in the data set with Oryctolagus cuniculus [5]; in data set [8]; with Oryctolagus cuniculus [10]; in the data set on Oryctolagus cuniculus [11]; in the data set on Oryctolagus cuniculus [12]) was Active.

`C=CC1=C(C)c2cc3[nH]c(cc4nc(cc5[nH]c(cc1n2)c(C)c5CCC(=O)OC)C(CCC(=O)OC)=C4C)[C@@]1(C)C3=CCC2C(=O)N(c3ccc([N+](=O)[O-])cc3)C(=O)C21` (some centres undefined): the Activity result in data set [1] is “Non-Toxic”; in [2] it was “Not Active”; in [3], “Non-Toxic”; in [6] it was 0.6; in [7], 0.5; in data set [9] it was “Non-Toxic”. Besides, the result (with Oryctolagus cuniculus [4]; with Oryctolagus cuniculus [5]; in [8]; in the data set on Oryctolagus cuniculus [10]; with Oryctolagus cuniculus [11]; with Oryctolagus cuniculus [12]) was Active.
